Consider 3 molecules from ChEMBL document CHEMBL1132012, “Synthesis and sulfatase inhibitory activities of (E)- and (Z)-4-hydroxytamoxifen sulfamates” (Bioorg Med Chem Lett, 1999).

The target in one data set is T1, Steryl-sulfatase (Rattus norvegicus, UniProt P15589).
T1 sequence (P15589 whole entry): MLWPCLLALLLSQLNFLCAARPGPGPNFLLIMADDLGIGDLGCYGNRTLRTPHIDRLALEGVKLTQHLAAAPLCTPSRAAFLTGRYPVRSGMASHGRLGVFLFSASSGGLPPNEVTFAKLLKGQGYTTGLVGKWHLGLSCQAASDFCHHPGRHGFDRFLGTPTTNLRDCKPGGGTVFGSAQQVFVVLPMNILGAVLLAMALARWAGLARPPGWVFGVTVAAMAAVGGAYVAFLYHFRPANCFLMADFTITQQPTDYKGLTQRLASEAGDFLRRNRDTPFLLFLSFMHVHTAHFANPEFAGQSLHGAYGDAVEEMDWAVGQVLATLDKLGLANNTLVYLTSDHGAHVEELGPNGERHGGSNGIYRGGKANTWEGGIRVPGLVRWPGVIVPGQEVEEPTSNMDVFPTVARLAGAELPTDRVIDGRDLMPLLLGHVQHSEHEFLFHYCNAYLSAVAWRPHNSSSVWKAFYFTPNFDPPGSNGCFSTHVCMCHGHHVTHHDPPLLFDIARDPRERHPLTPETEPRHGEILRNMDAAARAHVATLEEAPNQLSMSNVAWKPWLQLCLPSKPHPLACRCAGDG
The experiment in a line: (§1) In vitro binding affinity against estrone sulfatase in rat liver microsomes. The arrangement: species or system Microsome. A general note: Liver microsomes are a subcellular fraction often used to study metabolism.

Substrate in data set [1]: C[C@]12CC[C@@H]3c4ccc(OS(=O)(=O)O)cc4CC[C@H]3[C@@H]1CCC2=O
The data set is described as §1. The settings on record: Microsome.

A word on the Ki: it is a measure of affinity in units of concentration, obtained from inhibition or displacement. Read a high Ki as lower affinity. One may read the Km as the substrate concentration at which the rate is half of its maximum.

On to `CC/C(=C(\c1ccc(OCCN(C)C)cc1)c1ccc(OS(N)(=O)=O)cc1)c1ccccc1`, for which the Ki at Steryl-sulfatase was more than 500 µM.
With `CC/C(=C(/c1ccc(OCCN(C)C)cc1)c1ccc(OS(N)(=O)=O)cc1)c1ccccc1`, on Steryl-sulfatase, the inhibition constant Ki turned out to be 35.9 µM. In other words, the double-digit micromolar range.

B1: Steryl-sulfatase (Rattus norvegicus), P15589 (protein)
chain: MLWPCLLALLLSQLNFLCAARPGPGPNFLLIMADDLGIGDLGCYGNRTLRTPHIDRLALEGVKLTQHLAAAPLCTPSRAAFLTGRYPVRSGMASHGRLGVFLFSASSGGLPPNEVTFAKLLKGQGYTTGLVGKWHLGLSCQAASDFCHHPGRHGFDRFLGTPTTNLRDCKPGGGTVFGSAQQVFVVLPMNILGAVLLAMALARWAGLARPPGWVFGVTVAAMAAVGGAYVAFLYHFRPANCFLMADFTITQQPTDYKGLTQRLASEAGDFLRRNRDTPFLLFLSFMHVHTAHFANPEFAGQSLHGAYGDAVEEMDWAVGQVLATLDKLGLANNTLVYLTSDHGAHVEELGPNGERHGGSNGIYRGGKANTWEGGIRVPGLVRWPGVIVPGQEVEEPTSNMDVFPTVARLAGAELPTDRVIDGRDLMPLLLGHVQHSEHEFLFHYCNAYLSAVAWRPHNSSSVWKAFYFTPNFDPPGSNGCFSTHVCMCHGHHVTHHDPPLLFDIARDPRERHPLTPETEPRHGEILRNMDAAARAHVATLEEAPNQLSMSNVAWKPWLQLCLPSKPHPLACRCAGDG
Consider B1, for which, in data set [1], the Km stood at 90.2 µM.
